ChEMBL document CHEMBL1909046, “DrugMatrix in vitro pharmacology data”

What was measured:
[1] = DRUGMATRIX: Atrial Natriuretic Factor (ANF) radioligand binding (ligand: [125I] ANF (rat)); assay type: cell membranes, Cavia porcellus, Dunkin-Hartley, Adrenal gland, Membrane; conditions: Not Active = under 50% inhibition at 10 µM
Calcitonin receptor = target: T1, Calcitonin receptor (Homo sapiens, UniProt P30988); assay type: cell membranes, Membrane; conditions: t47d; note: in other assays of this panel Not Active means under 50% inhibition at 10 µM
T1 sequence (P30988 whole entry): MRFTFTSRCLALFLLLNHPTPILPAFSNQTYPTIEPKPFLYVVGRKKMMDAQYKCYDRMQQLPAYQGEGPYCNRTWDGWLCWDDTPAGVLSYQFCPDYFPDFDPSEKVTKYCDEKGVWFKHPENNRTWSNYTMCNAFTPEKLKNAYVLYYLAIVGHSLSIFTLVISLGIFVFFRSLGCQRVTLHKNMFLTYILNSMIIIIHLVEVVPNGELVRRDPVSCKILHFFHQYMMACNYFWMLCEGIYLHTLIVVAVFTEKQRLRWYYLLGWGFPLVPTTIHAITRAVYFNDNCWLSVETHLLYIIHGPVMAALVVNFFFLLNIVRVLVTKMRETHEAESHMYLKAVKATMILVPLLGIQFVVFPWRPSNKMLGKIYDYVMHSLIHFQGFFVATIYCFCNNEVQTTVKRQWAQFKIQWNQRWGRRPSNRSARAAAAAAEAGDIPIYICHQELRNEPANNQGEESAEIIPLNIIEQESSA

[2] = target: 5-hydroxytryptamine receptor 4 (Cavia porcellus, UniProt O70528); assay type: cell membranes, Dunkin-Hartley, Striatum, Membrane; note: in other assays of this panel Not Active means under 50% inhibition at 10 µM
Chain of 5-hydroxytryptamine receptor 4 (O70528 whole entry): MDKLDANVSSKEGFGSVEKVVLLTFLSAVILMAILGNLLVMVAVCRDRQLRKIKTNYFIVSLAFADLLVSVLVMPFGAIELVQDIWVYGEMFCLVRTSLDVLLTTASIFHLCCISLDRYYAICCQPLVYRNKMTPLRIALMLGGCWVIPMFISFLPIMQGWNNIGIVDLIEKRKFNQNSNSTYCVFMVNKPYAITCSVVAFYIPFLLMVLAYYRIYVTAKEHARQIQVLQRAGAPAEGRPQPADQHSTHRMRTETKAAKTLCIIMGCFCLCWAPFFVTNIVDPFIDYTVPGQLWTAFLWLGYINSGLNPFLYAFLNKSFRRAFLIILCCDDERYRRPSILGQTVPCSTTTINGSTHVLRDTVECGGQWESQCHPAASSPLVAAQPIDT

[3] = target: 5-hydroxytryptamine receptor 6 (Homo sapiens, UniProt P50406); assay type: cell membranes, HeLa, Membrane; conditions: hela; note: in other assays of this panel Not Active means under 50% inhibition at 10 µM
Chain of 5-hydroxytryptamine receptor 6 (P50406 whole entry): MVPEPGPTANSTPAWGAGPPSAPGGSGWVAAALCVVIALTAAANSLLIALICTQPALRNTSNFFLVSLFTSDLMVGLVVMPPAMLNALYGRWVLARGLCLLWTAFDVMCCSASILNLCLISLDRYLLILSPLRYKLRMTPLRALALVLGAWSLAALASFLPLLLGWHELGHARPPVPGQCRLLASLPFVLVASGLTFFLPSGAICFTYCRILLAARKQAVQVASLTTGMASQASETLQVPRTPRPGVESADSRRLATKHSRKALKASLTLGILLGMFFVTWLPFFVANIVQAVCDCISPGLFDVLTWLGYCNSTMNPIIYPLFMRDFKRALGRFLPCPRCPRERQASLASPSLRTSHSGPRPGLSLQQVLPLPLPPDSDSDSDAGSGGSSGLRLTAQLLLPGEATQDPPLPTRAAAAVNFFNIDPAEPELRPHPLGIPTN

Thromboxane-A synthase = target: T2, Thromboxane-A synthase (Homo sapiens, UniProt P24557); experiment: biochemical; assay type: tissue-based, Platelet; conditions: platelet;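 note: enzyme inhibition assay with PGH2 supplied as substrate; in other assays of this panel Not Active means under 50% inhibition at 10 µM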
T2 sequence (P24557 whole entry): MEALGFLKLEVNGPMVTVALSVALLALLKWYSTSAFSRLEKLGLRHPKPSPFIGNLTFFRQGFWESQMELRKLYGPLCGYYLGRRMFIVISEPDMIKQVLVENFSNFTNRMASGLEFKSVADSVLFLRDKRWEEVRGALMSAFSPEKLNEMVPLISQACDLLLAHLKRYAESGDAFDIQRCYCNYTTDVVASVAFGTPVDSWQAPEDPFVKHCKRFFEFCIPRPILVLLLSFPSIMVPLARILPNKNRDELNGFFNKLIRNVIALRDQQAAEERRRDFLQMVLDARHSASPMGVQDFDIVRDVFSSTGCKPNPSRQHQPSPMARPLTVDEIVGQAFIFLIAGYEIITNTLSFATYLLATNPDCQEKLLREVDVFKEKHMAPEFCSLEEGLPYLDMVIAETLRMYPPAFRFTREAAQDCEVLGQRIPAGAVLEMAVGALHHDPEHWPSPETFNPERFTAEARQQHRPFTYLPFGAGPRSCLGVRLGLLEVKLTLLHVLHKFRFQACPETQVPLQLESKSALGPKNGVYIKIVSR

[4] = target: Vascular endothelial growth factor receptor 1 (Homo sapiens, UniProt P17948); assay type: cell-based; conditions: huvec; note: in other assays of this panel Not Active means under 50% inhibition at 10 µM
Chain of Vascular endothelial growth factor receptor 1 (P17948 whole entry): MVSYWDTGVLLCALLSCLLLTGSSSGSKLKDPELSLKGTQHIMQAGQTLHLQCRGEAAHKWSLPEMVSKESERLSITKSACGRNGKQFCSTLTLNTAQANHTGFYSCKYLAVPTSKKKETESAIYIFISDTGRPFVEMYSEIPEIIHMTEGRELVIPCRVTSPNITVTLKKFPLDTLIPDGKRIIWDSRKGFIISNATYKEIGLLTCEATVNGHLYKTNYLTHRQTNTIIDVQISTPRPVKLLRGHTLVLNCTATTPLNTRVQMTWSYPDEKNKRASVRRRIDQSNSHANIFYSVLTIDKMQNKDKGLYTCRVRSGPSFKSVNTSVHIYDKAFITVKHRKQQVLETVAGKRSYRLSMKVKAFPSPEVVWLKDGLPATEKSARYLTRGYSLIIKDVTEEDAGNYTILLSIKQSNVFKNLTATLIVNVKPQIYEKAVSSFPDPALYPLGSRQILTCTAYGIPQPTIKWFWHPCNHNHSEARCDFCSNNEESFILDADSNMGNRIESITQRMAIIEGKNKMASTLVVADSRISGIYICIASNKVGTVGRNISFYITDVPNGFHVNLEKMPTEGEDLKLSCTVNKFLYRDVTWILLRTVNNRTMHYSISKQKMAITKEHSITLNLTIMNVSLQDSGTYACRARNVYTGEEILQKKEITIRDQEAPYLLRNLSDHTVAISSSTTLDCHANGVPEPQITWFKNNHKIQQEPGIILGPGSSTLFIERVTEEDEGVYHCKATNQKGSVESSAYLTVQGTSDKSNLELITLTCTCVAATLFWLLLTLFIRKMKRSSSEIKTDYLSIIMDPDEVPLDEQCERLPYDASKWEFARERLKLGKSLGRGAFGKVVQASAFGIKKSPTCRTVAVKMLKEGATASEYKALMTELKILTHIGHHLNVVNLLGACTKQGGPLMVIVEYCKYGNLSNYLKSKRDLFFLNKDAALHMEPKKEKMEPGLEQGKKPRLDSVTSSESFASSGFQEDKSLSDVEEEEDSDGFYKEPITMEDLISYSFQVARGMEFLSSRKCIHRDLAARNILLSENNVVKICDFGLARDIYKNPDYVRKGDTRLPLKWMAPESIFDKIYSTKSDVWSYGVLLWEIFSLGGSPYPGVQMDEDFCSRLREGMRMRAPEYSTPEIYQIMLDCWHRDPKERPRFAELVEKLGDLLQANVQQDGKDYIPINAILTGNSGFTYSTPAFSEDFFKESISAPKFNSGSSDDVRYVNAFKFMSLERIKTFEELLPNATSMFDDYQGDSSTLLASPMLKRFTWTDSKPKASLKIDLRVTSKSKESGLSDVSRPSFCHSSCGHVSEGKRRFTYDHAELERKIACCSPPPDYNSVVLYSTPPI

[5] = target: T3, Vasoactive intestinal polypeptide receptor 1 (Homo sapiens, UniProt P32241); assay type: cell membranes, Membrane; conditions: ht-29; note: in other assays of this panel Not Active means under 50% inhibition at 10 µM
T3 sequence (P32241 whole entry): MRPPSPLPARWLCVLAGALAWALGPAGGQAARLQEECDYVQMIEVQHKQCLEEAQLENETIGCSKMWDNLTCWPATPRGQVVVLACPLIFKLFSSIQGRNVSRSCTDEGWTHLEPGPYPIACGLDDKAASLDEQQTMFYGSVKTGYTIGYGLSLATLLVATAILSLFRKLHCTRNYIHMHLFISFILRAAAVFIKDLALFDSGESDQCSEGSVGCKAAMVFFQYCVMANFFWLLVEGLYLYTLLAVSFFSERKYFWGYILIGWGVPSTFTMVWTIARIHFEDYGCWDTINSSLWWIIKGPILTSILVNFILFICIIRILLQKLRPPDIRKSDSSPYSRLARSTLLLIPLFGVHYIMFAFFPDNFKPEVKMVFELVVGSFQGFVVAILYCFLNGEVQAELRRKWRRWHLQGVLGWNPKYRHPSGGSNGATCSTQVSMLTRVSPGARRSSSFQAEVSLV

[6] = target: T4, C-X-C chemokine receptor type 2 (Homo sapiens, UniProt P25025); assay type: cell membranes, Membrane; conditions: cho-k1; note: in other assays of this panel Not Active means under 50% inhibition at 10 µM
T4 sequence (P25025 whole entry): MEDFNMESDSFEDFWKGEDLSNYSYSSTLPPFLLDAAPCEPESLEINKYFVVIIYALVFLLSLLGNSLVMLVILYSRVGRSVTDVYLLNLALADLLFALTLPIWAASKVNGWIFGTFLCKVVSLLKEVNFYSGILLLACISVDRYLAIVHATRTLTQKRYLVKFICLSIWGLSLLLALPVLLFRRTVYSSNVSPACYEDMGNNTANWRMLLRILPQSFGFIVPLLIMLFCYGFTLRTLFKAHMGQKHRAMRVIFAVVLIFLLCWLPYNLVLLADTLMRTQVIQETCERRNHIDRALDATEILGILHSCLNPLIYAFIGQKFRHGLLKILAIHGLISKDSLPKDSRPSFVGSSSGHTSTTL

[7] = DRUGMATRIX: GABAA, Flunitrazepam, Central radioligand binding (ligand: [3H] Flunitrazepam); assay type: cell membranes, Rattus norvegicus, Wistar, Brain, Membrane; conditions: Not Active = under 50% inhibition at 10 µM
Leukotriene C4 synthase = target: T5, Leukotriene C4 synthase (Cavia porcellus, UniProt A6XA80); experiment: biochemical; assay type: tissue-based, Lung
T5 sequence (A6XA80 whole entry): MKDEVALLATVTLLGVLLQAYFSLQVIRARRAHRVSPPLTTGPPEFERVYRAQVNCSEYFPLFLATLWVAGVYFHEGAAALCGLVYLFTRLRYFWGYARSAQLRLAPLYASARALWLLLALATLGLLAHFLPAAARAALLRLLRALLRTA

[8] = target: Matrix metalloproteinase-9 (Homo sapiens, UniProt P14780); assay type: cell-based
Chain of Matrix metalloproteinase-9 (P14780 whole entry): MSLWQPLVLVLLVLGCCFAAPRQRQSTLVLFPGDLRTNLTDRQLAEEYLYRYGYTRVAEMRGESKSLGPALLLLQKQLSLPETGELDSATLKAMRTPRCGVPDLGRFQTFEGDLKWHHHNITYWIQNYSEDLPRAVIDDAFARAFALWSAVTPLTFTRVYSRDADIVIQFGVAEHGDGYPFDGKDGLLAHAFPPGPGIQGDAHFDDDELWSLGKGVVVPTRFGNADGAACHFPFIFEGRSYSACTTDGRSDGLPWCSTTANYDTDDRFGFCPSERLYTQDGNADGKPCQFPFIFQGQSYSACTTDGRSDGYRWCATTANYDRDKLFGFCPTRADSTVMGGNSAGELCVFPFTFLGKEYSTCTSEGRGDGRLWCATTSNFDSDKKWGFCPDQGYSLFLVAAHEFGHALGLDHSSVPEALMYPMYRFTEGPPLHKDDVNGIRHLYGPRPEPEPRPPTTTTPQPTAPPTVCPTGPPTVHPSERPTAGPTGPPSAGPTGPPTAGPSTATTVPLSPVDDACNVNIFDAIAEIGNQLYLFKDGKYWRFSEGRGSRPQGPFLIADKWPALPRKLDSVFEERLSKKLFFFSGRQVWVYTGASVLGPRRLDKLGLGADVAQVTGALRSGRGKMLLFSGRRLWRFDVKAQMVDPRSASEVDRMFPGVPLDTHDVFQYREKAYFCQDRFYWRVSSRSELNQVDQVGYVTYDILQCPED

Adenosine receptor A1 = target: T6, Adenosine receptor A1 (Homo sapiens, UniProt P30542); assay type: cell membranes, CHO, Membrane; conditions: cho
T6 sequence (P30542 whole entry): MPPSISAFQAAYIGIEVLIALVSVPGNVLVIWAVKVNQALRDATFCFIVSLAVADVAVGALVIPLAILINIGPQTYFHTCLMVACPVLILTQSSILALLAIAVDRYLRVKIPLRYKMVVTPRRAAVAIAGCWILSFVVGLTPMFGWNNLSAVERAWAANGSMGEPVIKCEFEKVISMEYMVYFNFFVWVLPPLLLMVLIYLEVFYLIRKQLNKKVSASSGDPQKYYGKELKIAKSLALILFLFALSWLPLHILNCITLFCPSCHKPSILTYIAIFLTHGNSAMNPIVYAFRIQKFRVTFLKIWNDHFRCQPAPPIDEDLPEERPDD

Cytochrome P450 3A4 = Cytochrome P450 3A4 (Homo sapiens, UniProt P08684); conditions: bti-tn-5b1-4; note: in other assays of this panel Not Active means under 50% inhibition at 10 µM
Chain of Cytochrome P450 3A4 (P08684 whole entry): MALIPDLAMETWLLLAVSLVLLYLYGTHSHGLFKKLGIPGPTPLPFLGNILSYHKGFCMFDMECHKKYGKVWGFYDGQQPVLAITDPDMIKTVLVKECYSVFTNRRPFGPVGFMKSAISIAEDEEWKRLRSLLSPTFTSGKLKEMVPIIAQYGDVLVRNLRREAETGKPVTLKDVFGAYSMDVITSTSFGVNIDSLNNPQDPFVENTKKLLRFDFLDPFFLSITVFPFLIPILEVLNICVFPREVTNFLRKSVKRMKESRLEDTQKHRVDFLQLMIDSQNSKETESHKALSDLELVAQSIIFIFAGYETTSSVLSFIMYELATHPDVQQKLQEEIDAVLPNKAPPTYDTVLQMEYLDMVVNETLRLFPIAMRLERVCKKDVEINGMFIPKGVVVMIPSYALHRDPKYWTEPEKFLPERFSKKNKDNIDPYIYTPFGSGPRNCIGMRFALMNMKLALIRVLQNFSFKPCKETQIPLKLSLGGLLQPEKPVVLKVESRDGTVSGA

CC1=Nc2ccc(Cl)cc2S(=O)(=O)N1 [DIAZOXIDE]
Not Active: IC50 [1] | Ki [1] | IC50 (Calcitonin receptor) | IC50 [2] | IC50 [3] | IC50 (Thromboxane-A synthase) | IC50 [4] | IC50 [5] | IC50 [6] | IC50 [7] | Ki [7] | IC50 (Leukotriene C4 synthase) | IC50 [8] | IC50 (Adenosine receptor A1) | IC50 (Cytochrome P450 3A4) | Ki (Cytochrome P450 3A4)

CC(=O)OCC(=O)[C@@]1(OC(C)=O)[C@@H](C)C[C@H]2[C@@H]3C[C@H](F)C4=CC(=O)C=C[C@]4(C)[C@@]3(F)[C@@H](O)C[C@@]21C [DIFLORASONE DIACETATE]
Not Active: IC50 [1] | Ki [1] | IC50 (Calcitonin receptor) | IC50 [2] | IC50 [3] | IC50 (Thromboxane-A synthase) | IC50 [4] | IC50 [5] | IC50 [6] | IC50 [7] | Ki [7] | IC50 (Leukotriene C4 synthase) | IC50 [8] | IC50 (Adenosine receptor A1) | IC50 (Cytochrome P450 3A4) | Ki (Cytochrome P450 3A4)

CCc1ccc(C(=O)C(C)CN2CCCCC2)cc1 (centres undefined) [EPERISONE]
Not Active: IC50 [1] | Ki [1] | IC50 (Calcitonin receptor) | IC50 [2] | IC50 [3] | IC50 (Thromboxane-A synthase) | IC50 [4] | IC50 [5] | IC50 [6] | IC50 [7] | Ki [7] | IC50 (Leukotriene C4 synthase) | IC50 [8] | IC50 (Adenosine receptor A1) | IC50 (Cytochrome P450 3A4) | Ki (Cytochrome P450 3A4)

C=C1CC[C@H](O)C/C1=C/C=C1\CCC[C@]2(C)[C@@H]([C@H](C)/C=C/[C@H](C)C(C)C)CC[C@@H]12 [ERGOCALCIFEROL]
Not Active: IC50 [1] | Ki [1] | IC50 (Calcitonin receptor) | IC50 [2] | IC50 [3] | IC50 (Thromboxane-A synthase) | IC50 [4] | IC50 [5] | IC50 [6] | IC50 [7] | Ki [7] | IC50 (Leukotriene C4 synthase) | IC50 [8] | IC50 (Adenosine receptor A1) | IC50 (Cytochrome P450 3A4) | Ki (Cytochrome P450 3A4)

CCc1cccc2c3c([nH]c12)C(CC)(CC(=O)O)OCC3 (centres undefined) [ETODOLAC]
Not Active: IC50 [1] | Ki [1] | IC50 (Calcitonin receptor) | IC50 [2] | IC50 [3] | IC50 (Thromboxane-A synthase) | IC50 [4] | IC50 [5] | IC50 [6] | IC50 [7] | Ki [7] | IC50 (Leukotriene C4 synthase) | IC50 [8] | IC50 (Adenosine receptor A1) | IC50 (Cytochrome P450 3A4) | Ki (Cytochrome P450 3A4)

Cc1c(-c2ccccc2)oc2c(C(=O)OCCN3CCCCC3)cccc2c1=O [FLAVOXATE]
Not Active: IC50 [1] | Ki [1] | IC50 (Calcitonin receptor) | IC50 [2] | IC50 [3] | IC50 (Thromboxane-A synthase) | IC50 [4] | IC50 [5] | IC50 [6] | IC50 [7] | Ki [7] | IC50 (Leukotriene C4 synthase) | IC50 [8] | IC50 (Adenosine receptor A1) | IC50 (Cytochrome P450 3A4) | Ki (Cytochrome P450 3A4)

Nc1nc(=O)[nH]cc1F [FLUCYTOSINE]
Not Active: IC50 [1] | Ki [1] | IC50 (Calcitonin receptor) | IC50 [2] | IC50 [3] | IC50 (Thromboxane-A synthase) | IC50 [4] | IC50 [5] | IC50 [6] | IC50 [7] | Ki [7] | IC50 (Leukotriene C4 synthase) | IC50 [8] | IC50 (Adenosine receptor A1) | IC50 (Cytochrome P450 3A4) | Ki (Cytochrome P450 3A4)

O=C1OC2(c3ccc(O)cc3Oc3cc(O)ccc32)c2ccccc21 [FLUORESCEIN]
Not Active: IC50 [1] | Ki [1] | IC50 (Calcitonin receptor) | IC50 [2] | IC50 [3] | IC50 (Thromboxane-A synthase) | IC50 [4] | IC50 [5] | IC50 [6] | IC50 [7] | Ki [7] | IC50 (Leukotriene C4 synthase) | IC50 [8] | IC50 (Adenosine receptor A1) | IC50 (Cytochrome P450 3A4) | Ki (Cytochrome P450 3A4)

CC(=O)[C@@]1(O)CC[C@H]2[C@@H]3C[C@H](C)C4=CC(=O)C=C[C@]4(C)[C@@]3(F)[C@@H](O)C[C@@]21C [FLUOROMETHOLONE]
Not Active: IC50 [1] | Ki [1] | IC50 (Calcitonin receptor) | IC50 [2] | IC50 [3] | IC50 (Thromboxane-A synthase) | IC50 [4] | IC50 [5] | IC50 [6] | IC50 [7] | Ki [7] | IC50 (Leukotriene C4 synthase) | IC50 [8] | IC50 (Adenosine receptor A1) | IC50 (Cytochrome P450 3A4) | Ki (Cytochrome P450 3A4)
